Reference: patent US4647572A, “Iodoallyl and iodopropargyl substituted tetrazoles and anti-microbial compositions thereof” (Meiji Seika Kaisha, Ltd., priority 1982, dated 1987)
Values after ≈ are worked out from the molar mass of the structure shown. Read-outs that look alike come from different tables or passages of the source.

Assays:
Assay type in all cases: cell-based
[1] = tested on: Staphylococcus aureus 209P JC-1; assay: Minimal Inhibitory Concentration Method; conditions: read-out: Minimal Inhibitory Conc.
[2] = tested on: Staphylococcus epidermidis ATCC 14990; assay: Minimal Inhibitory Concentration Method; conditions: ATCC14990, read-out: Minimal Inhibitory Conc.
[3] = tested on: Bacillus subtilis ATCC 6633; assay: Minimal Inhibitory Concentration Method; conditions: ATCC6633, read-out: Minimal Inhibitory Conc.
Escherichia coli No. 29 = assay: Minimal Inhibitory Concentration Method; conditions: read-out: Minimal Inhibitory Conc.
Salmonella typhi 0-901-W = assay: Minimal Inhibitory Concentration Method; conditions: Salmonella enterica, read-out: Minimal Inhibitory Conc.
Shigella dysenteriae = assay: Minimal Inhibitory Concentration Method; conditions: read-out: Minimal Inhibitory Conc.
Proteus vulgaris OX-19 = assay: Minimal Inhibitory Concentration Method
[4] = tested on: Serratia marcescens MB-3848; assay: Minimal Inhibitory Concentration Method; conditions: MB3848; Serratia marcescens MB-3848; read-out: Minimal Inhibitory Conc.
[5] = tested on: Pseudomonas cepacia M-0527; assay: Minimal Inhibitory Concentration Method; conditions: Burkholderia cepacia, M0527, read-out: Minimal Inhibitory Conc.
Candida albicans GA-24 = assay: Antifungal Activity MIC (in medicinal field); conditions: GA24, read-out: Minimal Inhibitory Concentration (MIC)
[6] = tested on: Cryptococcus neoformans Cr-1; assay: Antifungal Activity MIC (in medicinal field); conditions: CR1, read-out: Minimal Inhibitory Concentration (MIC)
[7] = tested on: Trichophyton metagrophytes 530324; assay: Antifungal Activity MIC (in medicinal field); conditions: read-out: Minimal Inhibitory Concentration (MIC)
[8] = tested on: Trichophyton interdigitale; assay: Antifungal Activity MIC (in medicinal field); conditions: read-out: Minimal Inhibitory Concentration (MIC)
[9] = tested on: Aspergillus fumigatus Saito; assay: Antifungal Activity MIC (in medicinal field); conditions: read-out: Minimal Inhibitory Concentration (MIC)
[10] = tested on: Bacillus anthracis No. 119; assay: microbe, parasite or virus in culture; conditions: NO.119, read-out: Minimal Inhibitory Conc.
[11] = tested on: Escherichia coli NIHJ JC-2; assay: Minimal Inhibitory Concentration Method; conditions: NIHJJC2, read-out: Minimal Inhibitory Conc.
[12] = tested on: Shigella sonnei EW 33 type I; assay: Minimal Inhibitory Concentration Method; conditions: EW33TYPEI, read-out: Minimal Inhibitory Conc.
From the text: (Minimal Inhibitory Concentration Method)
Minimal Inhibitory Conc. (mcg/ml)

[13] = tested on: Klebsiella pneumoniae PCI 602; assay: Minimal Inhibitory Concentration Method; conditions: PCI602, read-out: Minimal Inhibitory Conc.
[14] = tested on: Pseudomonas maltiophilia M-0627; assay: Minimal Inhibitory Concentration Method; conditions: M0627, read-out: Minimal Inhibitory Conc.
[15] = tested on: Staphylococcus aureus 209P; assay: Antibacterial activity (Paper-disc method); conditions: read-out: Inhibition zone diameter
Bacillus subtilis = assay: Antibacterial activity (Paper-disc method); conditions: read-out: Inhibition zone diameter
Sarcina lutea = assay: Antibacterial activity (Paper-disc method); conditions: Micrococcus luteus, read-out: Inhibition zone diameter
[16] = tested on: Escherichia coli NIHJ JC-2; assay: Antibacterial activity (Paper-disc method); conditions: read-out: Inhibition zone diameter
[17] = Staphylococcus aureus 209P JC-1
[18] = Proteus vulgaris, OX19, read-out: Minimal Inhibitory Conc.

| Structure (SMILES) | MIC (Candida albicans GA-24) [µg/mL] | MIC [6] [µg/mL] | MIC [7] [µg/mL] | MIC [8] [µg/mL] | MIC [9] [µg/mL] | other results |
| --- | --- | --- | --- | --- | --- | --- |
| IC(I)=C(I)Cn1nnnc1Cc1ccccc1 [Compound No. 59, 1-(2',3',3'-triiodoallyl)-5-benzyltetrazole] |  |  |  |  |  | MIC [1, 17]: 1.56 µg/mL (≈ 2.7 µM); MIC [2]: 0.2 µg/mL (≈ 0.346 µM); MIC [3]: 1.56 µg/mL (≈ 2.7 µM); MIC (Escherichia coli No. 29): 0.78 µg/mL (≈ 1.35 µM); MIC (Salmonella typhi 0-901-W): 12.5 µg/mL (≈ 21.6 µM); MIC (Shigella dysenteriae): 0.39 µg/mL (≈ 0.675 µM); MIC (Proteus vulgaris OX-19; OX19, Proteus vulgaris OX-19, read-out: Minimal Inhibitory Conc.): 1.56 µg/mL (≈ 2.7 µM); MIC [4]: 3.13 µg/mL (≈ 5.42 µM); MIC [5]: 3.13 µg/mL (≈ 5.42 µM) |
| CCCCCCCc1nnnn1CC(I)=C(I)I [Compound No. 41, 1-(2',3',3'-triiodoallyl)-5-n-heptyltetrazole] | > 100 | 100 (≈ 171 µM) | 0.78 (≈ 1.33 µM) | ≤ 0.05 | 3.13 (≈ 5.34 µM) |  |
| CCCCCc1nnn(CC(I)=C(I)I)n1 [Compound No. 42, 2-(2',3',3'-triiodoallyl)-5-n-pentyltetrazole] | 3.13 (≈ 5.61 µM) | 0.78 (≈ 1.4 µM) | 0.09 (≈ 0.161 µM) | 0.19 (≈ 0.341 µM) | 0.78 (≈ 1.4 µM) |  |
| CC(C)c1nnnn1CC(I)=C(I)I [Compound No. 49, 1-(2',3',3'-triiodoallyl)-5-isopropyltetrazole] | 12.5 (≈ 23.6 µM) | 6.25 (≈ 11.8 µM) | 6.25 (≈ 11.8 µM) | 1.56 (≈ 2.94 µM) | 12.5 (≈ 23.6 µM) |  |
| O=[N+]([O-])c1ccc(-c2nnn(CC#CI)n2)cc1 [Compound No. 37, 2-(1'-iodopropyn-3'-yl)-5-(p-nitrophenyl)tetrazole] | 25 (≈ 70.4 µM) | 3.13 (≈ 8.81 µM) | < 0.04 | 0.39 (≈ 1.1 µM) | 6.25 (≈ 17.6 µM) |  |
| CCCCCc1nnn(CC#CI)n1 [Compound No. 17, 2-(1'-iodopropyn-3'-yl)-5-pentyltetrazole] | 3.13 (≈ 10.3 µM) | 3.13 (≈ 10.3 µM) | ≤ 0.05 | 0.09 (≈ 0.296 µM) | 0.39 (≈ 1.28 µM) |  |
| CC(C)(C)c1nnnn1CC(I)=C(I)I [Compound No. 45, 1-(2',3',3'-triiodoallyl)-5-tert.-butyltetrazole] |  |  |  |  |  | MIC [1, 17]: 0.78 µg/mL (≈ 1.43 µM); MIC [2]: 0.2 µg/mL (≈ 0.368 µM); MIC [3]: 0.78 µg/mL (≈ 1.43 µM); MIC (Escherichia coli No. 29): 6.25 µg/mL (≈ 11.5 µM); MIC (Salmonella typhi 0-901-W): 50 µg/mL (≈ 91.9 µM); MIC (Shigella dysenteriae): 3.13 µg/mL (≈ 5.75 µM); MIC (Proteus vulgaris OX-19; [18]): 3.13 µg/mL (≈ 5.75 µM); MIC [4]: 12.5 µg/mL (≈ 23 µM); MIC [5]: 12.5 µg/mL (≈ 23 µM) |
| Cc1nnn(CC#CI)n1 [Compound No. 1, 2-(1'-iodopropyn-3'-yl)-5-methyltetrazole] | 6.25 (≈ 25.2 µM) | 3.12 (≈ 12.6 µM) | 3.12 (≈ 12.6 µM) | 6.25 (≈ 25.2 µM) | 6.25 (≈ 25.2 µM) |  |
| Oc1ccc(-c2nnnn2CC#CI)cc1 [Compound No. 35, 1-(1'-iodopropyn-3'-yl)-5-(p-hydroxyphenyl)tetrazole] | 1.56 (≈ 4.78 µM) | 0.39 (≈ 1.2 µM) | 0.1 (≈ 0.307 µM) | 0.1 (≈ 0.307 µM) | 100 (≈ 307 µM) |  |
| CC(C)c1nnn(CC#CI)n1 [Compound No. 7, 2-(1'-iodopropyn-3'-yl)-5-isopropyltetrazole] | ≤ 0.05 | 0.78 (≈ 2.83 µM) | ≤ 0.05 | ≤ 0.05 | ≤ 0.05 | MIC ([1]; Staphylococcus aureus, 209P): 12.5 µg/mL (≈ 45.3 µM); MIC [10]: 12.5 µg/mL (≈ 45.3 µM); MIC [11]: 25 µg/mL (≈ 90.6 µM); MIC (Salmonella typhi 0-901-W): 25 µg/mL (≈ 90.6 µM); MIC [12]: 6.25 µg/mL (≈ 22.6 µM); MIC [13]: 100 µg/mL (≈ 362 µM); MIC (Proteus vulgaris OX-19; [18]): 12.5 µg/mL (≈ 45.3 µM); MIC [4]: 25 µg/mL (≈ 90.6 µM); MIC [5]: > 100 µg/mL; MIC [14]: 50 µg/mL (≈ 181 µM) |
| CCCCCc1nnnn1CC(I)=C(I)I [Compound No. 43, 1-(2',3',3'-triiodoallyl)-5-n-pentyltetrazole] | 12.5 (≈ 22.4 µM) | 50 (≈ 89.6 µM) | 0.09 (≈ 0.161 µM) | ≤ 0.05 | 0.39 (≈ 0.699 µM) |  |
| Cc1ccc(-c2nnn(CC#CI)n2)cc1 [Compound No. 31, 2-(1'-Iodopropyn-3'-yl)-5-(p-methylphenyl)tetrazole] | 0.78 (≈ 2.41 µM) | 1.56 (≈ 4.81 µM) | 0.19 (≈ 0.586 µM) | 0.39 (≈ 1.2 µM) | 1.56 (≈ 4.81 µM) | zone of inhibition at 250 µg/mL ([15]; 250 γ/ml): 11.3 mm; zone of inhibition at 500 µg/mL ([15]; 500 γ/ml): 11.4 mm; zone of inhibition at 250 µg/mL (Bacillus subtilis; 250 γ/ml): 9.6 mm; zone of inhibition at 500 µg/mL (Bacillus subtilis; 500 γ/ml): 9.6 mm; zone of inhibition at 250 µg/mL (Sarcina lutea; 250 γ/ml): 12 mm; zone of inhibition at 500 µg/mL (Sarcina lutea; 500 γ/ml): 12 mm; zone of inhibition at 250 µg/mL ([16]; NIHJJC2, 250 γ/ml): 11.4 mm; zone of inhibition at 500 µg/mL ([16]; NIHJJC2, 500 γ/ml): 11.6 mm |
